One compound from paper PMC6934184, “Selective DNA-PKcs inhibition extends the therapeutic index of localized radiotherapy and chemotherapy” (The Journal of Clinical Investigation, 2019) can be followed below.

For the test, the target named is T1, PI4KA (PI4K alpha) (Homo sapiens, UniProt P42356).
T1 construct: purchased Thermo Fisher Scientific (Life Technologies) SelectScreen
Briefly: SelectScreen Adapta. The conditions noted are these: ATP 10 µM. The class given is biochemical. As for the experimental part: The in vitro kinase selectivity of NU5455 was determined using the SelectScreen Broad Assay Panel (Thermo Fisher Scientific) involving activity and binding assays (Supplemental Table 1). […] Class IA PI3Ks were measured using the p85α subunit.
Kinase [ATP] % Assay Kinase [ATP] % Assay Kinase [ATP] % Assay Kinase [ATP] % Assay […]
SGK (SGK1) Km app 8.5 Z MAP4K2 (GCK) Km app 2.7 Z TLK2 n/a -0.3 L STK38 (NDR) n/a -5.9 L
MERTK (cMER) Km app 8.3 Z CDK2/cyclin A Km app 2.7 Z TGFBR1 (ALK5) n/a -0.4 L MATK (HYL) Km app -6.3 Z
FYN Km app 8.3 Z EPHA1 Km app 2.7 Z CLK3 Km app -0.5 Z ABL1 E255K Km app -6.6 Z
TEC n/a 8.1 L CDK2/cyclin E1 n/a 2.7 L MAP3K14 (NIK) n/a -0.5 L STK17A (DRAK1) n/a -6.6 L
KIT V654A n/a 8.1 L TESK2 n/a 2.7 L AKT3 (PKB gamma) Km app -0.5 Z JAK2 JH1 JH2 Km app -6.7 Z
ROS1 Km app 8.0 Z SPHK1 Km app 2.7 A MAP3K9 (MLK1) Km app -0.5 Z PRKACB (PRKAC beta) n/a -6.8 L
FGFR3 K650E Km app 7.9 Z AMPK A2/B1/G1 Km app 2.6 Z IKBKB (IKK beta) Km app -0.6 Z PDGFRA (PDGFR alpha) Km app -6.8 Z
RAF1 (cRAF) Y340D Y341D 100 7.9 Z DYRK3 Km app 2.6 Z CAMK2A (CaMKII alpha) Km app -0.6 Z NEK9 Km app -7.2 Z
PI4KA (PI4K alpha) 10 7.8 A CSNK1D (CK1 delta) Km app 2.6 Z PRKCB1 (PKC beta I) Km app -0.7 Z PDK1 Km app -7.3 Z
HIPK2 Km app 7.8 Z ACVR2A n/a 2.5 L TTK n/a -0.7 L RPS6KB1 (p70S6K) Km app -7.8 Z
CSK Km app 7.6 Z DDR2 T654M n/a 2.5 L ZAK n/a -0.7 L STK38L (NDR2) n/a -8.4 L
PRKCG (PKC gamma) Km app 7.6 Z JAK2 Km app 2.5 Z IKBKE (IKK epsilon) Km app -0.7 Z ABL1 G250E Km app -8.5 Z
SRMS (Srm) Km app 7.5 Z HIPK3 (YAK1) Km app 2.5 Z CAMK2G (CaMKII gamma) n/a -0.8 L PRKD1 (PKC mu) Km app -8.5 Z
YES1 Km app 7.4 Z AMPK (A1/B1/G2) n/a 2.4 L TLK1 n/a -0.8 L CDK5/p35 Km app -8.6 Z
RPS6KA5 (MSK1) Km app 7.4 Z MYO3B (MYO3 beta) n/a 2.3 L MAPK12 (p38 gamma) Km app -0.8 Z PDGFRA T674I Km app -8.9 Z
TNIK n/a 7.3 L PASK Km app 2.3 Z PRKCI (PKC iota) Km app -0.8 Z BLK Km app -8.9 Z
FER Km app 7.1 Z ACVRL1 (ALK1) n/a 2.3 L PKN2 (PRK2) n/a -1.0 L PRKD2 (PKD2) Km app -9.1 Z
CDK16 (PCTK1)/cyclin Y n/a 7.0 L EGFR (ErbB1) L861Q Km app 2.2 Z PIM1 Km app -1.0 Z CSNK1G2 (CK1 gamma 2) Km app -9.3 Z
MST4 Km app 6.9 Z RPS6KA3 (RSK2) Km app 2.1 Z CDK5/p25 Km app -1.1 Z ROCK1 Km app -9.5 Z
FLT1 (VEGFR1) Km app 6.5 Z STK23 (MSSK1) Km app 2.0 Z SRPK1 Km app -1.1 Z PRKCB2 (PKC beta II) Km app -9.6 Z
DYRK1A Km app 6.4 Z ALK R1275Q n/a 2.0 L BRSK1 (SAD1) Km app -1.1 Z CSNK1G1 (CK1 gamma 1) Km app -9.9 Z
PRKCD (PKC delta) Km app 6.2 Z TBK1 Km app 2.0 Z MAP3K3 (MEKK3) n/a -1.1 L ABL2 (Arg) Km app -10.3 Z
EGFR (ErbB1) Km app 6.0 Z ACVR1B (ALK4) Km app 2.0 Z AMPK A1/B1/G1 Km app -1.2 Z STK3 (MST2) Km app -10.3 Z
CDC7/DBF4 n/a 6.0 L CDK3/cyclin E1 n/a 1.9 L WNK3 n/a -1.2 L CAMK4 (CaMKIV) Km app -10.4 Z
JAK3 Km app 6.0 Z KDR (VEGFR2) Km app 1.8 Z LATS1 n/a -1.3 L MKNK1 (MNK1) Km app -10.7 Z
MAPK13 (p38 delta) Km app 5.8 Z ULK1 n/a 1.8 L DMPK n/a -1.5 L FLT3 ITD n/a -11.6 L
FRAP1 (mTOR) Km app 5.7 Z AURKB (Aurora B) Km app 1.7 Z CDK2/cyclin A1 n/a -1.6 L CHEK2 (CHK2) Km app -11.7 Z
KIT Y823D n/a 5.6 L LRRK2 Km app 1.7 A LIMK1 n/a -1.7 L LTK (TYK1) Km app -13.1 Z
ITK Km app 5.5 Z MAP2K3 (MEK3) n/a 1.6 L DYRK1B Km app -1.8 Z JAK2 JH1 JH2 V617F Km app -13.8 Z
KIT Km app 5.3 Z DAPK1 Km app 1.6 A DDR1 n/a -1.8 L EPHA8 Km app -13.8 Z
CDK7/cyclin H/MNAT1 Km app 5.3 A EPHA6 n/a 1.6 L BTK Km app -2.0 Z EGFR (ErbB1) T790M L858R Km app -14.1 Z
RET Km app 5.2 Z MAP4K1 (HPK1) n/a 1.6 L ADRBK1 (GRK2) Km app -2.0 Z MET M1250T Km app -14.5 Z […]

T1 sequence (P42356 whole entry): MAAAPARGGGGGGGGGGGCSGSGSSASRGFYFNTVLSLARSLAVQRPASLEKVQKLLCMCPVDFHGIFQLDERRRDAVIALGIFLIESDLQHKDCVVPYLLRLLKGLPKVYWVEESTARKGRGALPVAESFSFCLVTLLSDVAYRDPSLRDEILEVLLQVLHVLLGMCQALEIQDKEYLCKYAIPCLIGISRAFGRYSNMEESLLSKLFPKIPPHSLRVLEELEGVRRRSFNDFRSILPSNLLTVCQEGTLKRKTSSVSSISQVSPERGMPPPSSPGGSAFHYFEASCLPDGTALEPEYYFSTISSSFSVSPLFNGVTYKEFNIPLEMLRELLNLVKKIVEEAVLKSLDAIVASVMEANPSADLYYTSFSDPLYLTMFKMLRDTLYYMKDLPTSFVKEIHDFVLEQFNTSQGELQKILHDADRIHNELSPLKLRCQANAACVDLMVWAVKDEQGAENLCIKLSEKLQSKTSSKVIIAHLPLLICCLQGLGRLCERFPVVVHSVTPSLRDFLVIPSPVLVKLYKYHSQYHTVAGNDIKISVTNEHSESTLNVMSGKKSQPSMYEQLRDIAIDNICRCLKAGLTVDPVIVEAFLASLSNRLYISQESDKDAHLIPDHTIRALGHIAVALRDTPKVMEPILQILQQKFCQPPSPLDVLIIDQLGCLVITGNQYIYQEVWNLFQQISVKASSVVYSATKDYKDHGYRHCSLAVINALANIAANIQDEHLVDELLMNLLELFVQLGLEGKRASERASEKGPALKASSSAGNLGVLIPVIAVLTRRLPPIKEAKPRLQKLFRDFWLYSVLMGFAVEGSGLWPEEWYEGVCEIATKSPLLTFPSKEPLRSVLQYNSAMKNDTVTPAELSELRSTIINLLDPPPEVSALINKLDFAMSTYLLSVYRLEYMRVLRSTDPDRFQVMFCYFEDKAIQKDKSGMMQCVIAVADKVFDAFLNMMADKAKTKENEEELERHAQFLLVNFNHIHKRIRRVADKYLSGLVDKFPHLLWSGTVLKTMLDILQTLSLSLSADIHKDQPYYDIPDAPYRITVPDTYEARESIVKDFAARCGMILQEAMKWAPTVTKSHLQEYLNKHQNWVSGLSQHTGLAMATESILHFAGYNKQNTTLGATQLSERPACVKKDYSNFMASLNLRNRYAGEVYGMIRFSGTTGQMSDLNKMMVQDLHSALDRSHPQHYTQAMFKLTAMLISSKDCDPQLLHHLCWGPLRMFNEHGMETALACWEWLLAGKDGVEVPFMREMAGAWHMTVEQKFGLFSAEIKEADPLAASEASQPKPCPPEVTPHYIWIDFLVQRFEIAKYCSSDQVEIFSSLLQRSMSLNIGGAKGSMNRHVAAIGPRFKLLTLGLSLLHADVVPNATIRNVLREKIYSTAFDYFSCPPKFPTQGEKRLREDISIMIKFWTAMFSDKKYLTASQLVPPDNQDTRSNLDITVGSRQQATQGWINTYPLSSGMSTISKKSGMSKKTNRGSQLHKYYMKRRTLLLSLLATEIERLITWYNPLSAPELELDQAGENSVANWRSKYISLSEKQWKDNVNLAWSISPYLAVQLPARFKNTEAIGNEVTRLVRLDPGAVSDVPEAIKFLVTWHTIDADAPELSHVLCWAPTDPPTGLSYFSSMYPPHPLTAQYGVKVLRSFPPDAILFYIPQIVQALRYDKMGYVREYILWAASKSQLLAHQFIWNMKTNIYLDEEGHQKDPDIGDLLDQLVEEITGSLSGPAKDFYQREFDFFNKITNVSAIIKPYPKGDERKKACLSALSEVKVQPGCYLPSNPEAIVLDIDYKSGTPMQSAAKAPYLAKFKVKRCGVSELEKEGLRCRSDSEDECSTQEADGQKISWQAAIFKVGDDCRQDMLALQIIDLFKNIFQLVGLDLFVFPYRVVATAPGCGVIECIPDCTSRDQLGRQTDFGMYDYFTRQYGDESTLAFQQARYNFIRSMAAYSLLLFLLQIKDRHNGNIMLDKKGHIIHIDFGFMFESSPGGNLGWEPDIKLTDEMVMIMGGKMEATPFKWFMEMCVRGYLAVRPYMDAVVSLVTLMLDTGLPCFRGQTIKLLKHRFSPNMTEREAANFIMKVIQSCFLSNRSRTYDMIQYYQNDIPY

In the case of `CN(C(=O)CN1CCOCC1)c1ccc2sc3c(-c4cccc5c(=O)cc(N6CC7CCC(C6)O7)oc45)cccc3c2c1` [NU5455], the inhibition (as a rule, the relative decrease from the control value, in per cent) at 1 µM came to 7.8%.
